Experimental data: patent US12435037B2, “Acetylsalicylic acid derivative and application thereof” (Zhejiang Hanmai Pharmaceutical Technology Co., Ltd., priority 2018, dated 2025)

Experiments:
in vitro = conditions: monkey, 10% monkey plasma diluent
[1] = tested on: monkey platelet aggregation; assay: Inhibitory effect on monkey platelet aggregation after transdermal administration; assay type: in vivo; conditions: cynomolgus monkeys, transdermal daily for four weeks (70 mg/kg; comparator 60 mg/kg), inducer 1 mM arachidonic acid
Method: The dose volume for a monkey was calculated based on its weight. The hair on the monkey's back was shaved, and the drug was evenly applied to the bare skin. The drug was administered continuously every day for four weeks. Blank blood was collected before administration, and blood was collected once a week after administration to detect the platelet aggregation ability (the inducer was 1 mM arachidonic acid).

[2] = Metabolism in 10% diluted plasma, mouse; conditions: 10% diluted mouse plasma
[3] = Metabolism in 10% diluted plasma, rat; conditions: 10% diluted rat plasma
[4] = Plasma metabolic stability test in 10% monkey plasma diluent; conditions: 37° C.

Structure (SMILES): CCN(CC)CCOC(=O)c1ccccc1OC(C)=O.Cl
- C0 at 0 min, 1 μM/mL (in vitro): 262 µg/mL
- inhibitory effect on platelet aggregation [1]: cannot inhibit platelet aggregation effectively
- platelet aggregation rate [1]: about 50%
- Highest acetylsalicylic acid concentration in plasma [2]: BLOQ
- Highest acetylsalicylic acid concentration in plasma [3]: BLOQ
- concentration of the parent drug ([4]; 10 min): 3.09 µg/mL
- concentration of the parent drug ([4]; 30 min): undetectable
